Source: patent US4672066A, “Derivatives of 4-acetyl-3-hydroxy-2-alkyl-phenoxycarboxylic acids” (Hoffmann-La Roche Inc., priority 1985, dated 1987)
Read-outs that look alike come from different tables or passages of the source.

Legend:
PAF = target: T1, PAF (Canis lupus familiaris, UniProt A0A8I3NSH0); assay: PAF Radioreceptor Binding Assay; conditions: dog platelets, 3H-PAF
T1 construct: followed by 2×10^7 dog platelets; from tissue; host or cells: washed platelets from citrate-treated dog blood
T1 sequence (A0A8I3NSH0 1-343): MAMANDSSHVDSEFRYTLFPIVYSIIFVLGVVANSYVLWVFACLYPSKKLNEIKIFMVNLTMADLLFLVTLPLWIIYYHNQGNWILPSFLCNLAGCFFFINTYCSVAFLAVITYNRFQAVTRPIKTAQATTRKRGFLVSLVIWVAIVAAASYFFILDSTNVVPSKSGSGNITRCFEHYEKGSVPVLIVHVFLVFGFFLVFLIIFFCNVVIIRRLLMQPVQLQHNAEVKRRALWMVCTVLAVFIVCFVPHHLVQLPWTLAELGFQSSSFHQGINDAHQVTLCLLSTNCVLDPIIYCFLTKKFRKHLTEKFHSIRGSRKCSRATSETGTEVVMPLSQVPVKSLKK
Description: Platelet rich plasma is prepared by centrifugation of citrate-treated dog blood. Acidification to pH 6.5 with 0.15 M citric acid and centrifugation for 10 minutes at 1000 xg yields a platelet pellet which is then washed by resuspension in EDTA-Phosphate Buffered Saline (PBS) and recentrifuged. The washed platelet preparation is adjusted to 2×10^7 platelets/50 μl in 0.1% BSA-PBS. […] After mixing, incubating for 10 minutes at room temperature, and centrifuging for 1 minute in a Beckman Microfuge B (8000 xg), the pellet is removed by clipping off the tip of the tube, the platelets are solubilized with 200 μl of 50% methanol, and counted in 10 ml of Aquasol. […] Results obtained with representative compounds of the present invention in this assay are summarized hereinafter in Tables I, II and III.

TXA2 synthase = target: T2, TXA2 synthase (Homo sapiens, UniProt P24557); assay: Thromboxane Synthase Inhibition, In Vitro; format: biochemical; conditions: at 1 μM (value in parentheses), human platelet microsomes
T2 construct: microsomal fractions from human platelets as enzyme source; from tissue; host or cells: microsomal fraction of human platelets
T2 sequence (P24557 1-533): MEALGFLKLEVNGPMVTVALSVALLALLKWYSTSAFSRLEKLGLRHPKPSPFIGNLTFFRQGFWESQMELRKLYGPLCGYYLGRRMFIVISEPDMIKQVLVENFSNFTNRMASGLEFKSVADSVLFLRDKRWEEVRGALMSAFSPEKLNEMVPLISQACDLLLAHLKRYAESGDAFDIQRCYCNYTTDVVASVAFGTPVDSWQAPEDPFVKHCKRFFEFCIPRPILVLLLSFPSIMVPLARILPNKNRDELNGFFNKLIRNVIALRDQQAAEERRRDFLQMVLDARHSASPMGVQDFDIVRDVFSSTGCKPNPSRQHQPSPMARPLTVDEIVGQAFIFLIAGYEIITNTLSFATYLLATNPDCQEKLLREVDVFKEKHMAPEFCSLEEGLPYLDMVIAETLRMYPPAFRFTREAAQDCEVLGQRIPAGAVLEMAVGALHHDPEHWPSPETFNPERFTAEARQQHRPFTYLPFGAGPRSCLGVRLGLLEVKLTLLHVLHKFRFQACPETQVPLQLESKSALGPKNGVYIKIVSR
Description: TXA2 synthase activity is measured by following the conversion of ^14 C-prostaglandin endoperoxide (PGH2) to ^14 C-thromboxane A2 (TXA2) using microsomal fractions from human platelets as enzyme source. In the aqueous incubation medium, the TXA2 decomposes rapidly into TXB2. The amount of TXA2 synthase is adjusted so that under the conditions of the assay approximately 80-90% of the substrate, PGH2, is converted to product in control tubes. To prepare ^14 C-PGH2, ^14 C-AA (50-60 mCi/mmole; Rose Chem.) is incubated with sheep seminal vesicular gland microsomes for 1.5 minutes at 37° C. and then the ^14 C-PGH2 is extracted with diethylether, purified on columns of Sephadex LH-20 or silicic acid, and stored in acetone at -70° C. Incubations are done as follows. Sufficient ^14 C-PGH2 yield a final substrate concentration of 10 μM (~30,000 cpm) is added to the incubation tubes and then the acetone is removed under nitrogen. […] The tubes are incubated at 22° C. for 2 minutes, the reaction is stopped and then the radioactive products and the unconverted PGH2 are extracted and analyzed by thin layer chromatography. […] The amount of ^14 C-PGH2 converted to products was used as a measure of TXA2 synthase activity. Inhibitors were tested initially at a final concentration of 100 μM. Results obtained with representative compounds of the present invention in this assay are summarized hereafter in Table I, II and III.

[1] = Table II, read-out: TXA2 Synth. Inhib. % at (1μM)
[2] = Table III, read-out: TXA2 Synth. Inhib. % at (1 μM)
[3] = Table I, read-out: TXA2 Syn. Inhib. (1μM)

IC50 (PAF; Table III)	inhibition at 1 µM (TXA2 synthase; [2])	IC50 (PAF; Table I)	SMILES	further results
–	–	–	CCCc1c(OCCCCCC(=O)NCCCCn2ccnc2)ccc(C(C)=O)c1O	IC50 (PAF; Table II): 1 µM; inhibition at 1 µM (TXA2 synthase; [1]): 87%
–	–	–	CCCc1c(OCCCCCC(=O)NCCCCOc2cccnc2)ccc(C(C)=O)c1O	IC50 (PAF; Table II): 1 µM; inhibition at 1 µM (TXA2 synthase; [1]): 93%
0.3 µM	77%	–	CCCc1c(OCCCC(=O)NC(C)CCCc2cccnc2)ccc(C(C)=O)c1O (stereo not shown) [Example 27, 4-(4-Acetyl-3-hydroxy-2-propylphenoxy)-N-[1-methyl-4-(3-pyridinyl)butyl]butanamide]	–
–	–	1 µM	CCCc1c(OCCCCC(=O)NCCCCc2cccnc2)ccc(C(C)=O)c1O [Example 1]	–
0.7 µM	93%	–	CCCc1c(OCCCNC(=O)NCCCCc2cccnc2)ccc(C(C)=O)c1O [Example 30, N-[3-(4-acetyl-3-hydroxy-2-propylphenoxy)-propyl]-N'-[4-(3-pyridinyl)butyl]urea]	–
–	–	1 µM	CCCc1c(OCCCC(=O)NCCCCCCc2cccnc2)ccc(C(C)=O)c1O [Example 11, 4-(4-Acetyl-3-hydroxy-2-propylphenoxy)-N-[6-(3-pyridinyl)hexyl]butanamide]	inhibition at 1 µM (TXA2 synthase; [3]): 83%
–	–	1.5 µM	CCCc1c(OCC(=O)NCCCCc2cccnc2)ccc(C(C)=O)c1O [Example 7, (4-Acetyl-3-hydroxy-2-propylphenoxy)-N-[4-(3-pyridinyl)butyl]acetamide]	inhibition at 1 µM (TXA2 synthase; [3]): 81%
1 µM	70%	–	CCCc1c(OCCC(C)C(=O)NCCCCc2cccnc2)ccc(C(C)=O)c1O (stereo not shown) [Example 22, 4-(4-Acetyl-3-hydroxy-2-propylphenoxy)-2-methyl-N-[4-(3-pyridinyl)butyl]butanamide]	–
–	–	–	CCCc1c(OCCCCCC(=O)NCCCCc2ccccn2)ccc(C(C)=O)c1O	IC50 (PAF; Table II): 1 µM; inhibition at 1 µM (TXA2 synthase; [1]): 0%
–	–	1.5 µM	CCCc1c(OCCCC(=O)NCCCc2cccnc2)ccc(C(C)=O)c1O [Example 12, 4-(4-Acetyl-3-hydroxy-2-propylphenoxy)-N-[3-(3-pyridinyl)propyl]butanamide]	inhibition at 1 µM (TXA2 synthase; [3]): 51%
–	–	1 µM	CCCc1c(OCCCCCCC(=O)NCCCCc2cccnc2)ccc(C(C)=O)c1O [Example 3, 7-(4-Acetyl-3-hydroxy-2-propylphenoxy)-N-[4-(3-pyridinyl)butyl]heptanamide]	inhibition at 1 µM (TXA2 synthase; [3]): 93%
–	–	1 µM	CCCc1c(OCCC(=O)NCCCCc2cccnc2)ccc(C(C)=O)c1O [Example 6, 3-(4-Acetyl-3-hydroxy-2-propylphenoxy)-N-[4-(3-pyridinyl)butyl]propanamide]	inhibition at 1 µM (TXA2 synthase; [3]): 77%
–	–	1 µM	CCCc1c(OCCCCCCCC(=O)NCCCCc2cccnc2)ccc(C(C)=O)c1O [Example 2, 8-(4-Acetyl-3-hydroxy-2-propylphenoxy)-N-[4-(3-pyridinyl)butyl]octanamide]	–
–	–	–	CCCc1c(OCCCCCC(=O)NCCc2ccncc2)ccc(C(C)=O)c1O	IC50 (PAF; Table II): 1.75 µM; inhibition at 1 µM (TXA2 synthase; [1]): 0%
0.2 µM	77%	–	CCCc1c(OCC(C)CC(=O)NCCCCc2cccnc2)ccc(C(C)=O)c1O (stereo not shown) [Example 23, 4-(4-Acetyl-3-hydroxy-2-propylphenoxy)-3-methyl-N-[4-(3-pyridinyl)butyl]butanamide]	–
1 µM	78%	–	CCCc1c(OCC(C)CC(=O)NC(C)CCCc2cccnc2)ccc(C(C)=O)c1O (stereo not shown) [Example 26, 4-(4-Acetyl-3-hydroxy-2-propylphenoxy)-3-methyl-N-[1-methyl-4-(3-pyridinyl)butyl]-butanamide]	–
–	–	–	CCCc1c(OCCCC#CC(=O)NCCCCc2cccnc2)ccc(C(C)=O)c1O [drawing 36]	IC50 (PAF; Table II): 0.5 µM; inhibition at 1 µM (TXA2 synthase; [1]): 88%
1 µM	55%	–	CCCc1c(OCCC(C)(C)C(=O)NCCCCc2cccnc2)ccc(C(C)=O)c1O [Example 24, 4-(4-Acetyl-3-hydroxy-2-propylphenoxy)-2,2-dimethyl-N-[4-(3-pyridinyl)butyl]butanamide]	–
